Data set [1] has as its system THP-1 cells. As to the kind of experiment: THP-1 cell viability assay (MTT). In kind it is cell-based, human. To be noted: groups with or without the compound; FIG. 3. On the procedure: 1) Recoveried and expanded THP-1 cells in a T75 culture flask. The growth medium was 10 milliliters of 10% fetal bovine serun/RPMI1640 (already containing 2 mM glutamine)/1% double antibiotics in each flask. […]

Data set [2] concerns mouse spleen Naïve CD4+ T cells. As to the kind of experiment: Compound cytotoxicity detection, lactate dehydrogenase (LDH) release. It is filed as cell-based. The note with it: 4 hours incubation; FIG. 9. The method, then:
1) Separated fresh spleens from adult C57BL/6 female mice (8-12 weeks old), and ground and filtered through a […] nylon cell strainer to obtain a single cell suspension in pre-cooled PBS; 2) Seeded primary CD4+ T cells in 96-well plate with a density of 1×10^5/90 μL. The medium was 1640 medium (serum-free); 3) Added the serially diluted compounds formulated in a volume of 10 μL to designated wells; 4) Incubated the cells for 4 hours at 37 degrees Celsius and 5% CO2; 5) Detected lactate dehydrogenase (LDH) release according to CytoTox-one Homogeneous Membrane Integrity Assay Kit instructions.

Data set [3] deals with mouse psoriasis model induced by Imiquimod. As to the kind of experiment: Mouse psoriasis model induced with imiquimod. It is filed as in vivo. To be noted: for relieving of inflammatory thickening of the model right ear: end point of 7-day administration. The method, then:
Animal strain: 28 male BALB/c mice, 6-8 weeks old, SPF environment, 12 hours light and dark cycle, 24-26 degrees Celsius. Blank group: no treatment, n=3; […] High-dose compound test group: 3.5 mg/kg drug intraperitoneal injection+5% imiquimod ointment, n=5; Low-dose compound test group: 0.8 mg/kg drug intraperitoneal injection+5% imiquimod ointment, n=5; Combined drugs test group: 0.8 mg/kg drug intraperitoneal injection+0.0025% PGE2 (administered epidermally in 75% ethanol)+5% imiquimod ointment, n=5; Day 0: anesthetized the mouse, shaved the back with an area about 2*3 cm; Day1-7: every other day, measured the mouse body weight, left and right ear thickness, and observed the skin to obtain a score; Day7: killed the mouse, sampled the back skin and fixed in 4% PFA solution for H&E staining; Model Group Induced with Imiquimod: Day 0: anesthetized the mouse, shaved the back with an area about 2*3 cm; Day1-7: every other day, measured the mouse body weight, left and right ear thickness, and observed the skin to obtain a score; […] Massaged moderately against the direction of the hair to help absorption; Day1-7: […] Massaged moderately against the direction of the hair to help absorption; Day7: killed the mouse, sampled the back skin and fixed in 4% PFA solution for H&E staining; Day 0: anesthetized the mouse, shaved the back with an area about 2*3 cm; Day1-7: every other day, measured the mouse body weight, left and right ear thickness, and observed the skin to obtain a score; […] Day1-7: then injected intraperitoneally 3.5 mg/kg in 200 μL sterile DPBS; Day1-7: then applied 62.5 mg of imiquimod ointment on the shaved area on the back of each mouse, applied 250 μg of imiquimod ointment on the inside and outside of the right ear, and massaged moderately against the direction of hair to help absorption; Day7: killed the mouse, sampled the back skin and fixed in 4% PFA solution for H&E staining; Day 0: anesthetized the mouse, shaved the back with an area about 2*3 cm; Day1-7: every other day, measured the mouse body weight, left and right ear thickness, and observed the skin to obtain a score; […] Day1-7: then injected intraperitoneally 0.8 mg/kg in 200 μL sterile DPBS; Day1-7: then applied 62.5 mg of imiquimod ointment on the shaved area on the back of each mouse, applied 250 μg of imiquimod ointment on the inside and outside of the right ear, and massaged moderately against the direction of hair to help absorption; Day7: killed the mouse, sampled the back skin and fixed in 4% PFA solution for H&E staining; Group Treated with Compound in Combination with PGE2: Day 0: anesthetized the mouse, shaved the back with an area about 2*3 cm; Day1-7: every other day, measured the mouse body weight, left and right ear thickness, and observed the skin to obtain a score; Day1-7: […] Day-7: then injected intraperitoneally 0.8 mg/kg in 200 μL sterile DPBS; Day1-7: one hour after PGE2 administration, applied 62.5 mg of imiquimod ointment on the shaved area on the back of each mouse, and applied 250 μg of imiquimod ointment on the inside and outside of the right ear. […] The area was fixed in the disease model and was not considered, and the other three aspects were quantified as follows: 0=asymptomatic, 1=mild, 2=moderate, 3=significant, 4=very significant; Changes of the thickening of the ear; Body weight; Skin histological changes (H&E staining).

[4] abbreviates: high-dose group 3.5 mg/kg intraperitoneal.
The mark [5] stands for this setting: low-dose group 0.8 mg/kg intraperitoneal.

The values below come from patent publication US20220079915A1, “IMMUNOSUPPRESSIVE PHARMACEUTICAL COMPOSITION AND APPLICATION THEREOF” (Shanghai Archeus Biotech Co., Ltd., priority 2018, published 2022).

Regarding `C=C[C@@]1(C)CC(=O)C2(O)[C@@]3(C)C(O)CCC(C)(C)C3[C@H](OC(=O)CCN(C)C)[C@H](OC(C)=O)[C@@]2(C)O1.Cl` (stereo partly shown) [6-[3-(dimethylamino)propionyl]forskolin hydrochloride], the cell viability entry in data set [1] is listed as “no significant difference”. Further, in data set [2], the “toxicity to CD4+ T cells (lactate dehydrogenase release)” value is reported as “not significantly toxic”. Also, the “thickness of epidermis and stratum corneum of back skin (H&E staining)” value in data set [3] (day 7, compared with the model group, FIG. 20) is “different degrees of thickness reduction”. In data set [3] (setting [4]), the “day of administration on which disease alleviation showed (back skin psoriasis-like index score)” value is 3 days and the “relieving of inflammatory thickening of the model right ear” value was 39%. Also, in data set [3] (setting [5]), the “day of administration on which the effect began (back skin psoriasis-like index score)” value turned out to be 5 days and the “relieving of inflammatory thickening of the model right ear” value was found to be 30%.
